From patent US20120115852A1, “HETEROCYCLIC COMPOUNDS AS AUTOTAXIN INHIBITORS” (Merck Patent Gesellschaft Mit Beschrankter Haftung, priority 2009, published 2012)

Biological target: T1, recombinant autotaxin (Homo sapiens, UniProt Q13822)
T1 construct: made in house; host or cells: Hi5 insect cells (baculovirus)
Assay: Autotaxin test (enzyme test), Amplex Red fluorescence with LPC substrate
Type: biochemical
Conditions: autotaxin inhibition (enzyme test); for remaining activity at 10 µM: 10 μM compound, read-out: % Control at 10 μM
Outline: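 Activity was inferred from H2O2 made from released choline, detected as Amplex Red/peroxidase fluorescence (485 nm excitation, 612 nm emission, kinetic read). Beforehand, Hi5-expressed autotaxin sat with compound 30 min at 22° C, then hydrolysed 75 μM final LPC for 90 min at 37° C, pH 8 Tris buffer.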

Row | Structure (SMILES) | remaining activity at 10 µM [%] | IC50 [nM]
1 | CC(C)(C)[C@H](O)C(=O)N1CCN2C(=O)c3cc(-c4ccc(Cl)cc4F)ccc3NC(=O)[C@@H]2C1 [Compound A64, (S)-7-(4-Chloro-2-fluorophenyl)-2-((S)-2-hydroxy-3,3-dimethylbutyryl)-1,3,4,11a-tetrahydro-2H,10H-2,4a,10-triazadibenzo[a,d]cycloheptene-5,11-dione] | 31 | > 1000
2 | CC(C)(C)CC(=O)N1CCN2C(=O)c3cc(-c4ccccc4F)ccc3NC(=O)[C@@H]2C1 [Compound A17, (S)-2-(3,3-Dimethylbutyryl)-7-(2-fluorophenyl)-1,3,4,11a-tetrahydro-2H,10H-2,4a,10-triaza-dibenzo[a,d]cycloheptene-5,11-dione] |  | 100 to 1000
3 | CC(C)[C@H](N)C(=O)N1CCN2C(=O)c3cc(-c4ccc(Cl)cc4F)ccc3NC(=O)[C@@H]2C1 [Compound A62, (S)-2-((S)-2-Amino-3-methylbutyryl)-7-(4-chloro-2-fluorophenyl)-1,3,4,11a-tetrahydro-2H,10H-2,4a,10-triazadibenzo[a,d]cycloheptene-5,11-dione] | 27 | > 1000
4 | O=C1Nc2ccc(-c3ccc(Cl)cc3)cc2C(=O)N2CCN(C(=O)c3cscn3)CC12 (stereo not drawn) [Compound A36, 7-(4-Chlorophenyl)-2-(thiazole-4-carbonyl)-1,3,4,11a-tetrahydro-2H,10H-2,4a,10-triaza-dibenzo[a,d]cycloheptene-5,11-dione] |  | 100 to 1000
5 | Cn1cc(CCC(=O)N2CCN3C(=O)c4cc(-c5ccc(Cl)cc5F)ccc4NC(=O)C3C2)cn1 (stereo not drawn) [Compound A95, 7-(4-Chloro-2-fluorophenyl)-2-[3-(1-methyl-1H-pyrazol-4-yl)propionyl]-1,3,4,11a-tetrahydro-2H,10H-2,4a,10-triazadibenzo[a,d]cycloheptene-5,11-dione] | 15 | > 1000
6 | O=C1Nc2ccc(-c3ccccc3F)cc2C(=O)N2CCN(C(=O)[C@@H]3CSCN3)C[C@@H]12 [Compound A16, (S)-7-(2-Fluorophenyl)-2-((R)-thiazolidine-4-carbonyl)-1,3,4,11a-tetrahydro-2H,10H-2,4a,10-triazadibenzo[a,d]cycloheptene-5,11-dione] | 18 | > 1000

Results, then the molecule that gave them:

Row | remaining activity at 10 µM [%] | IC50 [nM] | Structure (SMILES)
7 | 3 | 100 to 1000 | CC(C)(C)CC(=O)N1CCN2C(=O)c3cc(-c4ccc(Cl)cc4F)ccc3N(CC(N)=O)C(=O)[C@H]2C1 [Compound A150]
8 | 27 | > 1000 | CN1CCN(C(=O)CN2C(=O)[C@H]3CN(C(=O)[C@@H]4CCCN4C4CCNCC4)CCN3C(=O)c3cc(-c4ccc(Cl)cc4F)ccc32)CC1 [Compound A154]
9 | 1 | 100 to 1000 | CC(C)(C)[C@H](O)C(=O)N1CCN2C(=O)c3cc(-c4ccc(Cl)cc4F)ccc3NC(=O)[C@H]2C1 [Compound A96, (R)-7-(4-Chloro-2-fluorophenyl)-2-((S)-2-hydroxy-3,3-dimethylbutyryl)-1,3,4,11a-tetrahydro-2H,10H-2,4a,10-triazadibenzo[a,d]cycloheptene-5,11-dione]
10 | -21 | 100 to 1000 | CC1(C)SCNC1C(=O)N1CCN2C(=O)c3cc(-c4ccc(Cl)cc4)ccc3NC(=O)C2C1 (stereo not drawn) [Compound A141, 7-(4-Chlorophenyl)-2-(5,5-dimethylthiazolidine-4-carbonyl)-1,3,4,11a-tetrahydro-2H,10H-2,4a,10-triazadibenzo[a,d]cycloheptene-5,11-dione]
11 | 16 | > 1000 | O=C([C@@H]1CCCN1C1CCNCC1)N1CCN2C(=O)c3cc(-c4ccc(Cl)cc4F)ccc3N(CCO)C(=O)[C@H]2C1 [Compound A159]
12 | 8 | 100 to 1000 | Cc1ccc(-c2ccc3c(c2)C(=O)N2CCN(C(=O)[C@@H]4CCCN4C4CCNCC4)C[C@@H]2C(=O)N3)c(F)c1F [Compound A101, (R)-7-(2,3-Difluoro-4-methylphenyl)-2-((S)-1-piperidin-4-ylpyrrolidine-2-carbonyl)-1,3,4,11a-tetrahydro-2H,10H-2,4a,10-triaza-dibenzo[a,d]cycloheptene-5,11-dione]
13 | 14 | > 1000 | CC(C)(C)CC(=O)N1CCN2C(=O)c3cc(-c4ccccc4)ccc3NC(=O)C2C1 (stereo not drawn) [Compound A131, 2-(3,3-Dimethylbutyryl)-7-phenyl-1,3,4,11a-tetrahydro-2H,10H-2,4a,10-triaza-dibenzo[a,d]cycloheptene-5,11-dione]
